Assay results published in patent publication US12070452B2, “Compounds targeting HSP110 protein for cancer treatment” (INSERM (Institut National de la Santé et de la Recherche …, priority 2018, dated 2024).

Columns and labels:
[1] = system: phosphorylated STAT3; test: P-STAT3 level in SW480 cells (immunoblot quantification); assay type: cell-based, human; settings: 10 μM, 48 h, normalized by actin
Description: Results for SW480 cells treated during 48 h with non-relevant antibody (called NT), compound 52, compound 33, compound 51 and comparative compound 61 at 10 μM, and sh110 cells correspond to the third fourth, fifth, sixth and last columns from the left to the right.
FIG. 3B: Quantification of P-STAT3 level (in percentage) normalized by actin. […] (Ordinate: Percentage of P-STAT3 level (scale 50)
(§1) Immunoprecipitation test were realized on human colorectal cancer cells (SW480 and HCT116 cell lines), using a control depleted in HSP110 called Sh110 and a not depleted cells in HSP110. STAT3 phosphorylation is then […] by compounds 33 and 52. Depletion of HSP110 in the negative control blocked the phosphorylation of STAT3 without affecting STAT3 overall levels (FIGS. 2 and 3).

[2] = target: T1, HSP110:STAT3 complex (Homo sapiens, UniProt Q92598); test: Immunoprecipitation of HSP110:STAT3 complex in SW480 cells; assay type: cell-based; settings: SW480 shCtrl cells, 10 μM, 48 h
T1 construct: disrupting HSP110:STAT3 complex within the cell using human colorectal SW480 cancer cells; endogenous in cells; host or cells: SW480 cells carrying control shRNA (shCtrl); sh110 cells as HSP110-depleted control
T1 sequence (Q92598 2-858 limits assumed, one chain of several): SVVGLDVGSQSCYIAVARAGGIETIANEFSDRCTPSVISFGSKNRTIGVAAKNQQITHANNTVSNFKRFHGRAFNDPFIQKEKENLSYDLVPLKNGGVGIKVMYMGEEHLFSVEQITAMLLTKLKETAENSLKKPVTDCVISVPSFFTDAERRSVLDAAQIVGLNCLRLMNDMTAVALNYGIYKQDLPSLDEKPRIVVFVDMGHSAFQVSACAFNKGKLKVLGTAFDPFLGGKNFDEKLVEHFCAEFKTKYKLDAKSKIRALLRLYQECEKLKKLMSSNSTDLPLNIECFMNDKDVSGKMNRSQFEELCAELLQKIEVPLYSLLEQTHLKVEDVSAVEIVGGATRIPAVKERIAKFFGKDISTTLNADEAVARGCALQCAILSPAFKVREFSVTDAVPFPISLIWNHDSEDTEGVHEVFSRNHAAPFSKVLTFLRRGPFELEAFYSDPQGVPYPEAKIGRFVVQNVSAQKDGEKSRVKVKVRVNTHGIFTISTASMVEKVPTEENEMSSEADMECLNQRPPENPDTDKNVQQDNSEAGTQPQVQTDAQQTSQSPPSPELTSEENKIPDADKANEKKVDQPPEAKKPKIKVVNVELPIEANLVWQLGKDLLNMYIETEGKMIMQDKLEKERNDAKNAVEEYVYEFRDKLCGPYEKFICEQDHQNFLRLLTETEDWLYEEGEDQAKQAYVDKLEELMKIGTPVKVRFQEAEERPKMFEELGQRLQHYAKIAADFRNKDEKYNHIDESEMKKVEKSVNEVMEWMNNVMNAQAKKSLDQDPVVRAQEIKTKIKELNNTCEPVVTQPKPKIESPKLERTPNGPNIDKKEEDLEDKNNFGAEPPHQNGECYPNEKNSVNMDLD
Description: FIG. 2A: Immunoprecipitation (IP) analysis of HSP110 protein (first line), STAT3 protein (second line) compared with total Immunoglobuline (Ig) and actin in SW480 cells treated with (from left to the right column) non-relevant antibody as control (called NT a Normal rabbit IgG (sc-2027) from Santa Cruz Biotechnologies), compound 52 (related to formula (III)), compound 33 (related to formula (II)), compound 51 (related to formula (IV)) and comparative compound 61 at a concentration of 10 μM during 48 h on shCtrl cells transfected with shRNA for shRNA control (referenced ShCtrl IP:STAT3 for the five first columns) or HSP110-silencing (sh110) (referenced sh110-IP:STAT3 for the two last columns) (from the left to the right columns). Immunoprecipitation analysis of HSP110 (first line), STAT3 (second line) compared with total Ig and actin (second blot in the right) is observed with shCtrl cells transfected with shRNA for shRNA control (shCtrl) or HSP110-silencing (sh110) (left to right columns).
FIG. 2B: Quantification of HSP110:STAT3 disruption in percentage considering the total amount of HSP110 protein normalized by the signal intensity of the Ig band of FIG. 1 panel A. (Ordinate: Percentage of STAT3:HSP110 protein interaction (scale 50)). The histogram measured quantification in percentage for ShCtrl IP: STAT3 treated with Ctrl, compounds 52, 33, 51 and comparative compound 61, and for shCtrl cells transfected with shRNA for shRNA control referenced ShCtrl IP: STAT3) or HSP110-silencing (sh110) (referenced sh110-IP: STAT3) (from the left to the right column)
as §1

[3] = target: T2, human protein HSP110 (Homo sapiens, UniProt Q92598); test: HSP110 anti-aggregation function (luciferase substrate test); assay type: biochemical; settings: human HSP110 1.5 μM with firefly luciferase, 30 min at 42° C.; read-out: IC50 of HSP110 anti-aggregating activity
T2 construct: DNA coding the NBD-HSP110 (from human-HSP110)
T2 sequence (Q92598 whole entry, looked up): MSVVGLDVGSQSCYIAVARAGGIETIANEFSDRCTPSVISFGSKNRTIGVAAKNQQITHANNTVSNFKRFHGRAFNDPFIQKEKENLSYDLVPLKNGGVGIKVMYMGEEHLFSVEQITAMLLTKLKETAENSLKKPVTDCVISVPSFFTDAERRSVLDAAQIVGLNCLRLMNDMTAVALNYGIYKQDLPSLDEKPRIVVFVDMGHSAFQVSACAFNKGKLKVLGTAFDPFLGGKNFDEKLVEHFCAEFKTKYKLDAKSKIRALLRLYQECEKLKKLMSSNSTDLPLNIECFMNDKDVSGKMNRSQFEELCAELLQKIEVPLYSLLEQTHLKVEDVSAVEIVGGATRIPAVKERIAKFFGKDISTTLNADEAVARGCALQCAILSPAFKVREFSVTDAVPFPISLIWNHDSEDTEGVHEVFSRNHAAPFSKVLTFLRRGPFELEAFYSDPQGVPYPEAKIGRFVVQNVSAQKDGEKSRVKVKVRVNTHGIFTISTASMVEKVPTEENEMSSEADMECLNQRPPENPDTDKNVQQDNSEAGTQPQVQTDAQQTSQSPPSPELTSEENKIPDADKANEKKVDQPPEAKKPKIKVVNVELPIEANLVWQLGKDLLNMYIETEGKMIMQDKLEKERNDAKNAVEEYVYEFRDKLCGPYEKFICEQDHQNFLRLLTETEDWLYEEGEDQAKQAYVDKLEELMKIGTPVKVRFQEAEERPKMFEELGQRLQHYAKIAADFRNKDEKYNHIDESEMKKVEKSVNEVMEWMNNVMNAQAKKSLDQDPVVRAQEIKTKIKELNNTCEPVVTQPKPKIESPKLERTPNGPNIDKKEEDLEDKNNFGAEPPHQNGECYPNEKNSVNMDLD
Description: Anti-aggregation function of HSP110 was evaluated as described by O H et al (The Journal of biological chemistry 274, 15712-15718 (1999)). The human protein HSP110 (obtained as described above) at a concentration of 1.5 μM was incubated with firefly luciferase (from Sigma—from Photinus pyralis) in reaction buffer and heated in water bath for 30 min at 42° C.
Compounds of the present invention were added in reaction buffer to achieve the indicated concentrations and the final DMSO concentration was held constant at 1%. The heated reaction was diluted 10 times into buffer containing 60% of rabbit reticulocytelysate and incubated for 2 hours. The luciferase activity was measured by diluting 5 times the solution in HEPES and adding 5 μL of the solution in luciferase substrate (50 μL of Luciferase Assay System—Promega E1501 diluted in HEPES). The bioluminescence was reading with Envision Perkin Elmer.
The percentage of activity (x) was calculated by using the following equation: x=[(A−B)/(C−B)]×100, where (A) is the luciferase luminescence in presence of compounds of the invention, (B) in absence of HSP110 and (C) in presence of DMSO (Control). The percentage of total folding HSP110-promoted (mean=36%) was calculated considering as 100% the luminescence of luciferase incubated with HSP110 without heat shock. The IC50 were calculated from the dose-response curves, which were fitted by GraphPrism (Equation: Y=100/(1+10^((Log IC50−X)*HillSlope)).

[4] = target: T3, HSP110/Myd88 interaction (Homo sapiens, UniProt Q92598); test: Immunoprecipitation of HSP110/Myd88 in DLBCL cell line; assay type: cell-based; settings: IP Myd88, Western Blot
T3 construct: endogenous in cells
T3 sequence (Q92598 2-858 limits assumed): as the sequence (Q92598 2-858 limits assumed, one chain of several) above
From the text: FIG. 10A: Immunoprecipitation (IP) analysis of HSP110 (first line), Myd88 (second line), heavy chains (third line) and actin (fourth line) in large B cell lymphoma cell lines (DLBCL).
Left part of FIG. 10A (“Inputs”): treated with (from left to right column of the left part of FIG. 10A) DMSO, compound 52 (5052), compound 33 (5033) and compound 61 (5061) (Negative control);
Middle part of FIG. 10A (“IP Myd88”): treated with (from left to right column of the middle part of FIG. 10A) DMSO, compound 52, compound 33 and compound 61 (as the negative control); Myd88 was immunoprecipitated with an antibody specifically directed against Myd88.
MyD88 was immuno-precipitated from the cell line which has been non-treated or treated with the HSP110 inhibitors.

[5] = system: CT26 cells; test: Flow cytometric analysis of cell death (Annexin V / 7-AAD) in CT26 cells; assay type: cell-based, mouse; settings: 10 μM, 96 h
Description: FIG. 5A: Flow cytometric analysis of cell death in CT26 cells treated with the compound 33 (at the bottom left), compound 52 (at the bottom middle), comparative compound 61 (at the bottom right) at 10 μM during 96 h compared with Control (DMSO) (at the top left), and Cisplatin (at the top middle and top right). Live cells were double negative for 7-AAD (Y axis) and Annexin V (X axis), early apoptotic cells were positive for Annexin V, late apoptotic cells were positive for Annexin V and 7-AAD ([…]) and dead cells were positive for 7-AAD only.
FIG. 5B: Quantification of cell viability (in percentage) from flow cytometry data are represented (Control, cells, compounds 33, 52 and 61 from the left to the right bars). (Abscissa Negativity of 7-AAD; Ordinate Negativity of Annexin V).
We then analyzed cell death in CT26 cells treated with 10 μM during 96 h of compounds 33, 52 and 61 by flow cytometry. Cells were also treated with a well know anti-cancer compound, called cisplatin. Cells were marked for 7-aminoactinomycin D, which exclusively bind on death cells and for Annexin V, a well-known indicators of early stage apoptosis, thanks to its ability to bind to phosphatidylserine.

Row | SMILES | P-STAT3 level [1] | percentage of interaction of STAT3:HSP110 [2] | IC50 [3] [µM] | HSP110/Myd88 interaction [4] | cell death / apoptosis (Annexin V and 7-AAD marking) [5]
1 | COc1ccc(-c2cnc(-c3cnc(-c4ccc(OC)c(OC)c4)c(C)c3)c(/C=C/c3ccccc3)c2)cc1OC [compound 51, (E)-5,6′-Bis(3,4-dimethoxyphenyl)-5′-methyl-3-styryl-2,3′-bipyridine] | about 50% | not decrease | – | – | –
2 | N#CCc1cccc(-c2cnc(Cl)c(/C=C/c3ccccc3)c2)c1 [compound 61, (E)-2-(3-(6-Chloro-5-styrylpyridin-3-yl)phenyl) acetonitrile, reference compound] | 100% | not decrease | 227.5 ± 1.9 | does not inhibit | don't seem to be marked
